Measured values as given in the supplement of paper PMC10307832.

Assays:
Assay in all cases: relative viability (nuclei count vs DMSO), 5 days (fraction); higher = more cells survive
[1] = compound: COc1cc2ncn(-c3cc(OCc4ccccc4C(F)(F)F)c(C(N)=O)s3)c2cc1OC + O=C(CCCCCCC(=O)Nc1ccccc1)NO [Vorinostat] (partner 1 µM)
Summary of the method: (§1)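 Lung cancer cell lines in 1536-well plates were dosed by pin tool the day after seeding, either with one drug alone or with a fixed anchor-drug dose plus five library-drug doses (not always all listed) in √10 steps. After 5 days, cells were fixed and their nuclei stained in one step (final 0.05% Triton X-100, 1% formaldehyde, 1 ug/ml Hoechst), then counted on 4× images. Relative viability is the nuclei count in treated wells divided by that in vehicle wells. Values are medians of duplicate plates.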

[2] = compound: COc1cc2ncn(-c3cc(OCc4ccccc4C(F)(F)F)c(C(N)=O)s3)c2cc1OC + Nc1nc2[nH]cc(CCc3ccc(C(=O)N[C@@H](CCC(=O)O)C(=O)O)cc3)c2c(=O)[nH]1 [Pemetrexed] (partner 0.2 µM)
Summary of the method: as §1

[3] = compound: COc1cc2ncn(-c3cc(OCc4ccccc4C(F)(F)F)c(C(N)=O)s3)c2cc1OC + Cc1nc(Nc2ncc(C(=O)Nc3c(C)cccc3Cl)s2)cc(N2CCN(CCO)CC2)n1 [Dasatinib] (partner 0.075 µM)
Summary of the method: as §1

[4] = compound: COc1cc2ncn(-c3cc(OCc4ccccc4C(F)(F)F)c(C(N)=O)s3)c2cc1OC + CC(=O)c1c(C)c2cnc(Nc3ccc(N4CCNCC4)cn3)nc2n(C2CCCC2)c1=O [Palbociclib] (partner 0.5 µM)
Summary of the method: as §1

Cell Line | relative viability ([1]; first compound 0.05 µM) | relative viability ([1]; first compound 0.1581 µM) | relative viability ([1]; first compound 0.5 µM) | relative viability ([1]; first compound 1.581 µM) | relative viability ([1]; first compound 5 µM) | relative viability ([2]; first compound 0.05 µM) | relative viability ([2]; first compound 0.1581 µM) | relative viability ([2]; first compound 0.5 µM) | relative viability ([2]; first compound 1.581 µM) | relative viability ([2]; first compound 5 µM) | relative viability ([3]; first compound 0.05 µM) | relative viability ([3]; first compound 0.1581 µM) | relative viability ([3]; first compound 0.5 µM) | relative viability ([3]; first compound 1.581 µM) | relative viability ([3]; first compound 5 µM) | relative viability ([4]; first compound 0.05 µM) | relative viability ([4]; first compound 0.1581 µM) | relative viability ([4]; first compound 0.5 µM) | relative viability ([4]; first compound 1.581 µM) | relative viability ([4]; first compound 5 µM)
NCI-H1793 | 0.553 | 0.42 | 0.328 | 0.17 | 0.113 | 0.788 | 1.01 | 0.276 | 0.164 | 0.107 | 0.379 | 0.382 | 0.3 | 0.15 | 0.141 | 0.229 | 0.357 | 0.233 | 0.247 | 0.177
NCI-H1915 | 0.497 | 0.582 | 0.352 | 0.0829 | 0.0666 | 0.478 | 0.489 | 0.37 | 0.137 | 0.0826 | 0.365 | 0.281 | 0.316 | 0.0798 | 0.0572 | 0.456 | 0.493 | 0.347 | 0.114 | 0.0905
NCI-H1944 | 0.609 | 0.602 | 0.456 | 0.166 | 0.127 | 0.666 | 0.635 | 0.536 | 0.178 | 0.0832 | 0.227 | 0.223 | 0.191 | 0.127 | 0.109 | 0.412 | 0.373 | 0.308 | 0.205 | 0.119
NCI-H1975 | 0.501 | 0.631 | 0.272 | 0.166 | 0.134 | 0.3 | 0.274 | 0.232 | 0.188 | 0.159 | 0.415 | 0.335 | 0.207 | 0.126 | 0.109 | 0.613 | 0.33 | 0.193 | 0.198 | 0.148
NCI-H1993 | 0.725 | 0.736 | 0.384 | 0.389 | 0.348 | 0.513 | 0.616 | 0.41 | 0.421 | 0.448 | 0.649 | 0.555 | 0.528 | 0.503 | 0.424 | 0.512 | 0.67 | 0.561 | 0.513 | 0.431
NCI-H2009 | 0.667 | 0.607 | 0.302 | 0.0531 | 0.0578 | 0.983 | 0.884 | 0.43 | 0.218 | 0.26 | 0.297 | 0.256 | 0.152 | 0.128 | 0.0782 | 0.191 | 0.203 | 0.188 | 0.178 | 0.127
NCI-H2023 | 0.544 | 0.711 | 0.168 | 0.107 | 0.0613 | 0.202 | 0.2 | 0.177 | 0.107 | 0.114 | 0.566 | 0.532 | 0.355 | 0.096 | 0.0804 | 0.397 | 0.41 | 0.265 | 0.0834 | 0.0792
NCI-H2085 | 0.722 | 0.796 | 0.541 | 0.386 | 0.302 | 0.85 | 0.831 | 0.719 | 0.33 | 0.292 | 0.23 | 0.233 | 0.221 | 0.217 | 0.209 | 0.423 | 0.476 | 0.488 | 0.38 | 0.244
